{"source": "patent US6821735B1", "about": "“Protein involved in abscisic acid signalling” (Plant BioScience Limited, priority 1997, dated 2004)", "molecules": {"B1": {"name": "SYR: syntaxin-related protein of N. tabacum, 300 amino acids, SEQ ID NO:2 (protein, listed as Nicotiana tabacum)", "chain": "MNDLFSGSFSRFRADDQSDSHAIEMGDITGGVNLDKFFEDVEAIKDELKGLEKIYSQLQSSHEKSKTLHNAKAVKDLRSNMDNDVSMALKKAKFIKVRLEALDRSNAANRSLPGCGPGSSSDRTRTSVVNGLRKKLQESMNQFNELRQKMASEYRETVQRRYYTVTGENPDEAVLDTLISTGQSETFLQKAIQEQGRGQVMDTVMEIQERHEAVKELERNLKELHQVFLDMAVLVESQGAQLDDIESQVNRANSFVRGGAQQLQVARKHQKNTRKWTCFAIILLLIIILVVVLSIQPWKK"}, "B2": {"name": "Sp2: truncated Nt-Syr protein, amino acids 1-279 of SEQ ID NO:2, N-His-tagged (protein, listed as Nicotiana tabacum)", "chain": "MNDLFSGSFSRFRADDQSDSHAIEMGDITGGVNLDKFFEDVEAIKDELKGLEKIYSQLQSSHEKSKTLHNAKAVKDLRSNMDNDVSMALKKAKFIKVRLEALDRSNAANRSLPGCGPGSSSDRTRTSVVNGLRKKLQESMNQFNELRQKMASEYRETVQRRYYTVTGENPDEAVLDTLISTGQSETFLQKAIQEQGRGQVMDTVMEIQERHEAVKELERNLKELHQVFLDMAVLVESQGAQLDDIESQVNRANSFVRGGAQQLQVARKHQKNTRKWTCF", "modifications": "N-terminal His tag"}}, "key": {"[1]": {"tested_on": "Xenopus Ca^2+-dependent Cl^− channels", "assay": "ABA response of Xenopus oocytes injected with N. tabacum poly(A)+ RNA, two-electrode voltage clamp", "format": "cell-based, Xenopus laevis"}, "[2]": {"tested_on": "inward-rectifying K^+ channels of guard cells", "format": "cell-based, N. benthamiana"}, "[3]": {"tested_on": "outward-rectifying K^+ channels of guard cells", "assay": "Guard cell voltage clamp: ABA response of the outward-rectifying K^+ current (IK,out)", "format": "cell-based, Nicotiana"}, "[4]": {"tested_on": "inward-rectifying K^+ channels of guard cells", "details": "stated as normal; cited from earlier work"}, "[5]": {"details": "cited from earlier work"}, "SYR transcript": {"tested_on": "SYR transcript", "assay": "Northern analysis of SYR expression in leaves of treated plants"}, "[6]": {"tested_on": "anion current of guard cells", "format": "cell-based, N. benthamiana"}, "[7]": {"tested_on": "inward-rectifying K^+ currents of guard cells", "format": "cell-based, V. faba", "details": "after 300 s"}, "[8]": {"tested_on": "current endogenous to the oocytes", "assay": "Uninjected oocytes in 25 mM K^+: effect of channel inhibitors", "details": "25 mM K^+ in the bath"}, "[9]": {"tested_on": "oocyte endogenous voltage-dependent K^+ channels", "assay": "Voltage clamp of oocytes expressing SYR: current characterization and channel inhibitors", "format": "cell-based, Xenopus laevis", "parameters": "highest maximum value of outward-rectifying current: unit not given here", "details": "for reduction of the current in SYR expressing oocytes: toxin in Ringer at Table 3 concentration (TEA 30 mM, niflumic acid 1 mM)"}, "H440 yeast strain": {"tested_on": "H440 yeast strain", "assay": "Complementation of yeast strain H440 (SSO1 and SSO2 deleted) on galactose deficient medium", "details": "H440(SYR) on galactose deficient medium"}, "[10]": {"assay": "Rabbit antisera raised against SYR peptides, tested by Western blot", "format": "in vivo", "details": "bleeds after injection", "description": "Both, the purchased (SP1) and the purified (SP2) peptides were injected, each into two rabbits at the UKC animal facilities (University of Kent, Canterbury). Blood sera were taken after four weeks and the rabbits were injected a second time, After a second bleed two to three weeks later, the rabbits were injected a third time and killed while collecting blood from the heart two weeks later. SDS—PAGE and Western Blotting\nPrior to hybridization with an antibody, the membrane was blocked with 1×TBS (0.15 M NaCl, 3 mM KCl, 25 mM Tris pH 7.4) and 5% Marvel (milk powder) for 1 h. Antibody hybridization occurred in the same buffer (1×TBS, 5% Marvel) plus 0.1% Tween and 0.1% azide overnight with a rabbit generated antibody with an estimated concentration of 1 ng/μl. The antibody solution was then poured off and stored in the fridge until needed again. The membrane was washed three times with 1×TBS and 0.1% Tween solution. […]"}}, "note": "“Also recorded” adds a separate entry of the source. Where two headings read alike, the source gives them in different places."}
{"molecule": "CC1=CC(=O)CC(C)(C)[C@@]1(O)/C=C/C(C)=C\\C(=O)O", "note": "[ABA, abscisic acid]", "values": [{"measurement": "time for complete decay of the ABA-stimulated current", "setting": "[1]; 20 μM ABA, mRNA injected oocyte", "value": "≤ 5", "unit": "min"}, {"measurement": "response to a second ABA application", "setting": "[1]; 2 of the 3 ABA responsive cells", "value": "In neither case, a second response was detected"}, {"measurement": "increase of steady-state current evoked by ABA", "setting": "[1]; at +60 mV, mRNA injected oocyte", "value": "> 3", "unit": "μA"}, {"measurement": "number of cells showing the ABA response", "setting": "[1]; of a total of 5 mRNA injected cells tested", "value": 3, "unit": "cells"}, {"measurement": "maximum amplitude of outward-rectifying Cl^− current in response to ABA", "setting": "[1]; oocytes injected with N. tabacum poly(A)+ RNA", "value": 3.1, "unit": "μA"}, {"measurement": "response of water injected oocytes", "setting": "[1]; water injected oocytes, n=8", "value": "did not respond"}, {"measurement": "inhibition of inward K^+ current in response to ABA", "setting": "[2]", "value": "about 40%"}, {"measurement": "inward-rectifier current in ABA", "setting": "[2]", "value": "24 % of the control"}, {"measurement": "mean IK.in ABA normalized for IK.in before ABA", "setting": "[2]; n=5", "value": "46 % of the original current"}, {"measurement": "stimulation of the outward-rectifier current", "setting": "[3]; 20 M ABA, 10 mM K+ outside", "value": "~2", "unit": "fold"}, {"measurement": "inactivation of the inward-rectifying K+ channel current normally caused by ABA", "setting": "[4]", "value": "40-60%"}, {"measurement": "pKa", "setting": "[5]", "value": 4.8}, {"measurement": "SYR transcript level in leaves", "setting": "SYR transcript; plants treated by spraying, ABA 20 μM, IAA 30 min", "value": "increased; also recorded: transient induction"}, {"measurement": "time of highest amount of SYR transcript after beginning of treatment", "setting": "SYR transcript; second experiment, total RNA", "value": 30, "unit": "min"}, {"measurement": "effect of ABA on instantaneous anion current of a control cell", "setting": "[6]", "value": "four-fold increase"}, {"measurement": "stimulation of the Cl^− current amplitude", "setting": "[6]", "value": 3, "unit": "fold"}, {"measurement": "ABA induced increase of instantaneous anion current, mean, normalized to before ABA", "setting": "[6]; n=3", "value": 3.5, "unit": "fold"}, {"measurement": "inhibition of IK,in by ABA", "setting": "[7]", "value": "~80", "unit": "%"}]}
{"molecule": "[Ba+2]", "note": "[Ba^2+]", "values": [{"measurement": "effect on the current of uninjected oocytes, in words", "setting": "[8]", "value": "a time-dependent one arose"}, {"measurement": "effect on the current in SYR expressing oocytes, in words", "setting": "[9]", "value": "conversion of the instantaneous component into the time-dependent component"}, {"measurement": "reversibility of the toxin effect", "setting": "[9]", "value": "Full recovery"}]}
{"molecule": "CC[N+](CC)(CC)CC", "note": "[TEA, tetraethyl ammonium]", "values": [{"measurement": "effect on the current of uninjected oocytes, in words", "setting": "[8]", "value": "invisible"}, {"measurement": "reversibility of the toxin effect", "setting": "[9]; after wash-out", "value": "reversible"}, {"measurement": "reduction of the current in SYR expressing oocytes", "setting": "[9]", "value": 50, "unit": "%"}]}
{"molecule": "O=C(O)c1cccnc1Nc1cccc(C(F)(F)F)c1", "note": "[niflumic acid]", "values": [{"measurement": "effect on the current of uninjected oocytes, in words", "setting": "[8]", "value": "abolished"}, {"measurement": "reversibility of the toxin effect", "setting": "[9]; after wash-out", "value": "fully recovered"}, {"measurement": "reduction of the current in SYR expressing oocytes", "setting": "[9]", "value": "~100", "unit": "%"}]}
{"molecule": "CC(=O)[O-].[K+]", "note": "[potassium acetate]", "values": [{"measurement": "induction of outward Cl^− currents by weak acid control", "setting": "[1]; 20 μM substituted for ABA, mRNA injected oocytes", "value": "no response was observed"}]}
{"molecule": "ω-conotoxin", "values": [{"measurement": "effect on the current in SYR expressing oocytes, in words", "setting": "[9]", "value": "no effect was detected"}]}
{"molecule": "B1", "values": [{"measurement": "suppression of the SSO1/SSO2 mutation", "setting": "H440 yeast strain", "value": "could not suppress this mutation"}, {"measurement": "half time of increase in outward-rectifying current after impalement", "setting": "[9]; 50 ng cRNA injected, +60 mV", "value": 20, "unit": "min"}, {"measurement": "highest maximum value of outward-rectifying current", "setting": "[9]; 50 ng cRNA injected, +60 mV", "value": 3}, {"measurement": "reversal potential of the outward-rectifying current", "setting": "[9]; [K^+]o 25 mM", "value": "around −35 mV"}]}
{"molecule": "B2", "values": [{"measurement": "ABA sensitivity of inward-rectifying K+ current after Sp2 loading", "setting": "[2]", "value": "complete loss of sensitivity to ABA"}, {"measurement": "ABA sensitivity of outward-rectifying K+ current after Sp2 loading", "setting": "[3]; microelectrodes containing 20 or 100 µM Sp2, 20 µM ABA", "value": "complete loss of sensitivity to ABA"}, {"measurement": "recognition of the peptide by rabbit blood sera", "setting": "[10]", "value": "did cross-react with the peptide"}]}
